Laboratory results from ChEMBL document CHEMBL1154174, “Phytochemical investigation of labdane diterpenes from the rhizomes of Hedychium spicatum and their cytotoxic activity” (Bioorg Med Chem Lett, 2009).

Assays:
Assay type in all cases: functional, cell-based; call rule not given here
[1] = tested on: HL-60; assay: Cytotoxicity against human HL60 cells by MTT assay
[2] = tested on: THP-1; assay: Cytotoxicity against human THP1 cells by MTT assay
[3] = tested on: A-375; assay: Cytotoxicity against human A375 cells by MTT assay
[4] = tested on: A549; assay: Cytotoxicity against human A549 cells by MTT assay
[5] = Homo sapiens, HL-60, read-out: IC50

Row | SMILES | IC50 ([1]; hl-60) | IC50 [2] [µM] | IC50 [3] [µM] | IC50 [4] [µM] | IC50 [1, 5] [µM]
1 | C=C1CC[C@H]2C(C)(C)CCC[C@]2(C)[C@H]1C | Not Active | 53.9 | 50.2 | 61.3 | 
2 | C=C1CC[C@H]2C(C)(C)CCC[C@]2(C)[C@H]1/C=C/c1ccoc1 [CORONARIN E] |  | 34 | 36.6 | 53.3 | 31.2
3 | CC1(C)CCC[C@]2(C)[C@@H](/C=C/c3ccoc3)C(C=O)=C(O)C(=O)[C@@H]12 |  | 23.4 | 21.6 | 37.9 | 16
4 | CC1(C)CCC[C@]2(C)[C@@H](/C=C/c3ccoc3)C(CO)=CC(=O)[C@@H]12 [YUNNACORONARIN D] |  | 59.5 | 41.9 | 51.2 | 36.4
5 | CCOC(=O)/C=C/c1ccc(OC)cc1 [4-METHOXY ETHYL CINNAMATE] |  | 33.5 | 31.3 |  | 29.6
6 | CCOC(=O)/C=C/c1ccccc1 [ETHYL CINNAMATE] |  | 41.2 | 31.6 | 50.4 | 35.7
7 | COc1cc([C@@H]2c3cc4c(cc3[C@@H](O[C@@H]3O[C@@H]5CO[C@@H](C)O[C@H]5[C@H](O)[C@H]3O)[C@H]3COC(=O)[C@H]23)OCO4)cc(OC)c1O [ETOPOSIDE] |  | 1.83 |  |  | 2.16
8 | CC1=CC(=O)[C@H]2C(C)(C)CCC[C@]2(C)[C@H]1/C=C/C(=O)O [SPICATANOIC ACID] |  | 39 | 56.1 | 52 | 69.4
9 | O=c1cc(-c2ccccc2)oc2cc(O)cc(O)c12 [CHRYSIN] |  | 23.4 | 29.7 | 19.9 | 34
